Laboratory results reported in the NIST ThermoML archive (doi:10.1021/je800653d).
± gives the expanded uncertainty stated by the source.

Assay: xn = mol fraction of the nth substance listed
Conditions: 101 kPa, Liquid; for viscosity: Capillary tube (Ostwald / Ubbelohde) method; for speed of sound: Linear variable-path acoustic interferometer

O=S1(=O)CCCC1 [sulfolane] + CCCCOC(C)=O
Conditions	mass density, 303.15 K [kg/m3]	mass density, 308.15 K [kg/m3]	mass density, 313.15 K [kg/m3]	speed of sound, 303.15 K [m/s]	speed of sound, 308.15 K [m/s]	speed of sound, 313.15 K [m/s]	viscosity, 303.15 K [mPa·s]	viscosity, 308.15 K [mPa·s]	viscosity, 313.15 K [mPa·s]
x1 = 0.0311	880.8 ± 0.8	876.9 ± 0.8	871.8 ± 0.8	1182 ± 5	1164 ± 5	1146 ± 5	0.6426 ± 0.0064	0.6016 ± 0.006	0.5637 ± 0.0057
x1 = 0.1903	932.3 ± 0.8	928.6 ± 0.9	923.5 ± 0.9	1232 ± 5	1212 ± 5	1193 ± 5	0.895 ± 0.0085	0.8248 ± 0.0079	0.7699 ± 0.0074
x1 = 0.3402	985.2 ± 0.9	980.9 ± 0.9	975.4 ± 0.9	1280 ± 5	1261 ± 5	1245 ± 5	1.242 ± 0.011	1.145 ± 0.011	1.066 ± 0.01
x1 = 0.474	1036.1 ± 1	1030.9 ± 1	1025.4 ± 1	1327 ± 6	1316 ± 6	1301 ± 5	1.722 ± 0.016	1.577 ± 0.014	1.457 ± 0.013
x1 = 0.5789	1078.5 ± 1	1072.7 ± 1	1067.1 ± 1.1	1372 ± 6	1366 ± 6	1354 ± 6	2.3 ± 0.021	2.082 ± 0.019	1.903 ± 0.017
x1 = 0.6793	1120.5 ± 1.1	1114.4 ± 1.1	1108.8 ± 1.1	1424 ± 6	1418 ± 6	1408 ± 6	3.027 ± 0.027	2.717 ± 0.024	2.471 ± 0.022
x1 = 0.7887	1168.2 ± 1.1	1162.1 ± 1.2	1156.6 ± 1.2	1477 ± 6	1468 ± 6	1466 ± 6	4.275 ± 0.037	3.837 ± 0.034	3.436 ± 0.03
x1 = 0.8876	1212.2 ± 1.2	1207.1 ± 1.2	1201.5 ± 1.3	1528 ± 6	1520 ± 6	1510 ± 6	6.2 ± 0.052	5.499 ± 0.047	4.902 ± 0.042
x1 = 0.9836	1254.2 ± 1.3	1250.1 ± 1.3	1244.8 ± 1.3	1577 ± 7	1572 ± 7	1556 ± 6	9.049 ± 0.072	7.925 ± 0.064	6.987 ± 0.058
x1 = 1	1261.8 ± 1.3	1257 ± 1.3	1251.6 ± 1.3	1588 ± 7	1576 ± 7	1558 ± 7	10.03 ± 0.079	8.795 ± 0.07	7.837 ± 0.063

O=S1(=O)CCCC1 [sulfolane] + CCCOC(C)=O
Conditions	mass density, 303.15 K [kg/m3]	mass density, 308.15 K [kg/m3]	mass density, 313.15 K [kg/m3]	speed of sound, 303.15 K [m/s]	speed of sound, 308.15 K [m/s]	speed of sound, 313.15 K [m/s]	viscosity, 303.15 K [mPa·s]	viscosity, 308.15 K [mPa·s]	viscosity, 313.15 K [mPa·s]
x1 = 0.0247	886.9 ± 0.8	881.9 ± 0.8	875.7 ± 0.8	1154 ± 5	1147 ± 5	1134 ± 5	0.5146 ± 0.0056	0.4827 ± 0.005	0.4554 ± 0.0048
x1 = 0.1746	941.4 ± 0.8	935.8 ± 0.9	929.8 ± 0.9	1214 ± 5	1203 ± 5	1189 ± 5	0.726 ± 0.0071	0.6764 ± 0.0067	0.6342 ± 0.0063
x1 = 0.311	992.9 ± 0.9	986.9 ± 0.9	981.3 ± 1	1266 ± 5	1257 ± 5	1243 ± 5	1.019 ± 0.0096	0.9439 ± 0.0089	0.8781 ± 0.0084
x1 = 0.4416	1043.1 ± 1	1037.9 ± 1	1032.4 ± 1	1322 ± 6	1312 ± 6	1301 ± 5	1.438 ± 0.013	1.325 ± 0.012	1.222 ± 0.011
x1 = 0.5468	1084.6 ± 1	1079.6 ± 1.1	1074 ± 1.1	1368 ± 6	1359 ± 6	1352 ± 6	1.922 ± 0.017	1.762 ± 0.016	1.617 ± 0.015
x1 = 0.6489	1124.9 ± 1.1	1120.1 ± 1.1	1114.1 ± 1.1	1419 ± 6	1410 ± 6	1401 ± 6	2.624 ± 0.023	2.375 ± 0.021	2.176 ± 0.019
x1 = 0.7639	1169.5 ± 1.1	1164.7 ± 1.2	1159.4 ± 1.2	1474 ± 6	1469 ± 6	1458 ± 6	3.92 ± 0.034	3.502 ± 0.031	3.185 ± 0.028
x1 = 0.8733	1212.3 ± 1.2	1207.6 ± 1.2	1202.2 ± 1.3	1530 ± 6	1521 ± 6	1510 ± 6	5.863 ± 0.049	5.217 ± 0.045	4.662 ± 0.04
x1 = 0.9823	1255.4 ± 1.3	1251 ± 1.3	1245.4 ± 1.3	1579 ± 7	1573 ± 7	1555 ± 6	9.305 ± 0.074	8.132 ± 0.065	7.222 ± 0.059
x1 = 1	1261.8 ± 1.3	1257 ± 1.3	1251.6 ± 1.3	1588 ± 7	1576 ± 7	1558 ± 7	10.03 ± 0.079	8.795 ± 0.07	7.837 ± 0.063

O=S1(=O)CCCC1 [sulfolane] + CCOC(C)=O
Conditions	mass density [kg/m3]	speed of sound [m/s]	viscosity [mPa·s]
298.15 K, x1 = 1	1263.9 ± 1.3	1601 ± 7	–
303.15 K, x1 = 0.0218	897.8 ± 0.8	1134 ± 5	0.4006 ± 0.0043
303.15 K, x1 = 0.1511	950.7 ± 0.9	1196 ± 5	0.5566 ± 0.0056
303.15 K, x1 = 0.2748	1001.1 ± 0.9	1251 ± 5	0.7832 ± 0.0076
303.15 K, x1 = 0.4012	1052.3 ± 1	1313 ± 6	1.118 ± 0.01
303.15 K, x1 = 0.5068	1094 ± 1	1366 ± 6	1.5 ± 0.014
303.15 K, x1 = 0.598	1127.6 ± 1.1	1408 ± 6	2.054 ± 0.018
303.15 K, x1 = 0.7331	1175.4 ± 1.2	1472 ± 6	3.211 ± 0.028
303.15 K, x1 = 0.8548	1215.5 ± 1.2	1524 ± 6	5.285 ± 0.045
303.15 K, x1 = 0.9799	1255.5 ± 1.3	1579 ± 7	9.205 ± 0.073
303.15 K, x1 = 1	1261.8 ± 1.3	1588 ± 7	10.03 ± 0.079
308.15 K, x1 = 0.0218	893.2 ± 0.8	1121 ± 5	0.3819 ± 0.0041
308.15 K, x1 = 0.1511	947.1 ± 0.9	1185 ± 5	0.5275 ± 0.0054
308.15 K, x1 = 0.2748	997.7 ± 0.9	1241 ± 5	0.73 ± 0.0071
308.15 K, x1 = 0.4012	1048.8 ± 1	1301 ± 5	1.042 ± 0.0098
308.15 K, x1 = 0.5068	1090.3 ± 1.1	1355 ± 6	1.394 ± 0.013
308.15 K, x1 = 0.598	1123.9 ± 1.1	1398 ± 6	1.882 ± 0.017
308.15 K, x1 = 0.7331	1171.5 ± 1.2	1465 ± 6	2.923 ± 0.026
308.15 K, x1 = 0.8548	1211.6 ± 1.2	1515 ± 6	4.756 ± 0.041
308.15 K, x1 = 0.9799	1251.9 ± 1.3	1569 ± 7	8.078 ± 0.065
308.15 K, x1 = 1	1257 ± 1.3	1576 ± 7	8.795 ± 0.07
313.15 K, x1 = 0.0218	885.1 ± 0.8	1092 ± 5	0.3633 ± 0.004
313.15 K, x1 = 0.1511	939.5 ± 0.9	1154 ± 5	0.4961 ± 0.0051
313.15 K, x1 = 0.2748	989.9 ± 1	1216 ± 5	0.6874 ± 0.0067
313.15 K, x1 = 0.4012	1040.5 ± 1	1283 ± 5	0.9781 ± 0.0092
313.15 K, x1 = 0.5068	1082.1 ± 1.1	1346 ± 6	1.292 ± 0.012
313.15 K, x1 = 0.598	1116.7 ± 1.1	1397 ± 6	1.752 ± 0.016
313.15 K, x1 = 0.7331	1164.7 ± 1.2	1464 ± 6	2.7 ± 0.024
313.15 K, x1 = 0.8548	1205.5 ± 1.3	1513 ± 6	4.281 ± 0.037
313.15 K, x1 = 0.9799	1245.8 ± 1.3	1555 ± 6	7.092 ± 0.058
313.15 K, x1 = 1	1251.6 ± 1.3	1558 ± 7	7.837 ± 0.063
